In US9216978B2, “Ring-fused pyrimidines and triazines and use thereof for the treatment and/or prophylaxis of cardiovascular diseases” (BAYER INTELLECTUAL PROPERTY GMBH, priority 2010, dated 2015):

Tests used:
[1] = molecular target: T1, recombinant guanylate cyclase reporter cell line (Rattus norvegicus, UniProt P19686+P20595); experiment: Action on recombinant guanylate cyclase reporter cell line; type: cell-based
T1 construct: expressed in transfected cells
T1 sequence (P20595 1-619): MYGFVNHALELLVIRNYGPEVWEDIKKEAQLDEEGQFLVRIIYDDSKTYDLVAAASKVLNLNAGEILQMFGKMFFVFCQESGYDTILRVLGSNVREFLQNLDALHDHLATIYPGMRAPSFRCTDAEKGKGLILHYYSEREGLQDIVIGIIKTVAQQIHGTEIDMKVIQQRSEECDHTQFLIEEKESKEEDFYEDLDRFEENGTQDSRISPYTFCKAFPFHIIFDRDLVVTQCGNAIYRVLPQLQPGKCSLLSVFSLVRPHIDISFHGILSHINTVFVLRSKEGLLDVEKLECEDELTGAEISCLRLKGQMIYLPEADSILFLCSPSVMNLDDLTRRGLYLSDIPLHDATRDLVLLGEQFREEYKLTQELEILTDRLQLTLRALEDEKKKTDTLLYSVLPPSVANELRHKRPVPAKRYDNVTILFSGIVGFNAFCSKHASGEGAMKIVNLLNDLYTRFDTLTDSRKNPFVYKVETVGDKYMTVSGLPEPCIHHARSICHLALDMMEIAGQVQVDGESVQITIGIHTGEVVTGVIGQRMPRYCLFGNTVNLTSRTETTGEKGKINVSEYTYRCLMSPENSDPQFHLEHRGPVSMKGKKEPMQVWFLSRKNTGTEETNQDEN
T1 sequence (P19686 1-690): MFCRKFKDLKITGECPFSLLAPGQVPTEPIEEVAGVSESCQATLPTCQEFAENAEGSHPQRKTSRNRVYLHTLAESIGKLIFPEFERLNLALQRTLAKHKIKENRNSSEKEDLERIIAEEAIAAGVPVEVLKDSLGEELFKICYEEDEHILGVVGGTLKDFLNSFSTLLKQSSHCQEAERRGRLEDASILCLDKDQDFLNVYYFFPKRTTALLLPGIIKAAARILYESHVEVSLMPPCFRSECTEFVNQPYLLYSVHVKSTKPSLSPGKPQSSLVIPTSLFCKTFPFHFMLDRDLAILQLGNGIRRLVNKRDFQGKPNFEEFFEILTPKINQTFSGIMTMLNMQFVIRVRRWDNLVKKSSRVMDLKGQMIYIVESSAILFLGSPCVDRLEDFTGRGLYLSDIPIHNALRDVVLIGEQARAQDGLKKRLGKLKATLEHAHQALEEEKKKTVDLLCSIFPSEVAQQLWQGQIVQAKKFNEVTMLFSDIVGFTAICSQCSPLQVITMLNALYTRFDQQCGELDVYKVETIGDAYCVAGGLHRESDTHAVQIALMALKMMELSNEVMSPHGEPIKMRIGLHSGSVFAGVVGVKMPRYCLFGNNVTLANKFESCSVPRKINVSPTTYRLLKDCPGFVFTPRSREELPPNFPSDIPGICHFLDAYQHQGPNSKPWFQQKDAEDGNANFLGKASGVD
Method: B-2. Action on Recombinant Guanylate Cyclase Reporter Cell Line
The cellular action of the compounds according to the invention is determined on a recombinant guanylate cyclase reporter cell line, as described in F. Wunder et al., Anal. Biochem. 339, 104-112 (2005).

aorta = experiment: Vessel-relaxing action in vitro (phenylephrine-contracted aorta rings); conditions: Oryctolagus cuniculus; rabbit aorta rings, phenylephrine contraction; concentration reducing control contraction by 50%
Method: B-1. Vessel-Relaxing Action In Vitro
Rabbits are stunned with a blow on the back of the neck and exsanguinated. The aorta is removed, freed from adhering tissue, separated into rings with a width of 1.5 mm, and placed individually, with preloading, in 5-ml organ baths with carbogen-gassed Krebs-Henseleit solution at 37° C. with the following composition (mM in each case): sodium chloride: 119; potassium chloride: 4.8; calcium chloride dihydrate: 1; magnesium sulphate heptahydrate: 1.4; potassium dihydrogen phosphate: 1.2; sodium hydrogen carbonate: 25; glucose: 10. The contraction force is recorded with Statham UC2 cells, amplified and digitized via an A/D converter (DAS-1802 HC, Keithley Instruments Munich) and recorded in parallel on a continuous-line recorder. To produce contraction, phenylephrine is added to the bath cumulatively in increasing concentration. After several control cycles, the test substance is added in increasing dosage in each subsequent pass and the level of contraction is compared with the level of contraction reached in the immediately preceding pass. This is used for calculating the concentration that is required to reduce the level of the control value by 50% (IC50 value). The standard application volume is 5 μl, and the proportion of DMSO in the bath solution corresponds to 0.1%.

MEC (minimal effective concentration) [1] [µM]	IC50 (aorta) [nM]	Compound
0.03	–	O=C1Nc2nc(-c3nn(Cc4ccccc4F)c4ncccc34)ncc2C12CCOC2 (stereo not shown) [Example 3, 2′-[1-(2-Fluorobenzyl)-1H-pyrazolo[3,4-b]pyridin-3-yl]-4,5-dihydrospiro[furan-3,5′-pyrrolo[2,3-d]pyrimidin]-6′(7′H)-one]
0.03	–	O=C1Cc2cnc(-c3nn(Cc4ccccc4F)c4ncccc34)nc2N1 [Example 4, 2-[1-(2-Fluorobenzyl)-1H-pyrazolo[3,4-b]pyridin-3-yl]-5,7-dihydro-6H-pyrrolo[2,3-d]pyrimidin-6-one]
0.03	–	O=C1Nc2nc(-c3nn(Cc4ccccc4F)c4ncccc34)ncc2C12CC2 [Example 5, 2′-[1-(2-Fluorobenzyl)-1H-pyrazolo[3,4-b]pyridin-3-yl]spiro[cyclopropane-1,5′-pyrrolo[2,3-d]pyrimidin]-6′(7′H)-one]
0.03	–	O=C1Cc2nnc(-c3nn(Cc4ccccc4F)c4ncccc34)nc2N1 [Example 6, 3-[1-(2-Fluorobenzyl)-1H-pyrazolo[3,4-b]pyridin-3-yl]-5,7-dihydro-6H-pyrrolo[2,3-e][1,2,4]-triazin-6-one]
0.1	65	CC1CC(=O)Nc2nc(-c3nn(Cc4ccccc4F)c4ncccc34)ncc21 (stereo not shown) [Example 14, 2-[1-(2-Fluorobenzyl)-1H-pyrazolo[3,4-b]pyridin-3-yl]-5-methyl-5,8-dihydropyrido[2,3-d]-pyrimidin-7(6H)-one]
0.3	–	O=C1CC(C(F)(F)F)c2cnc(-c3nn(Cc4ccccc4F)c4ncccc34)nc2N1 (stereo not shown) [Example 15, 2-[1-(2-Fluorobenzyl)-1H-pyrazolo[3,4-b]pyridin-3-yl]-5-(trifluoromethyl)-5,8-dihydropyrido[2,3-d]pyrimidin-7(6H)-one]
1.0	–	O=C1Nc2nc(-c3nn(Cc4ccccc4F)c4ncccc34)ncc2C1=O [Example 16, 2-[1-(2-Fluorobenzyl)-1H-pyrazolo[3,4-b]pyridin-3-yl]-5H-pyrrolo[2,3-d]pyrimidine-5,6(7H)-dione]
0.1	13	CC1(O)C(=O)Nc2nc(-c3nn(Cc4ccccc4F)c4ncccc34)ncc21 (stereo not shown) [Example 17, 2-[1-(2-Fluorobenzyl)-1H-pyrazolo[3,4-b]pyridin-3-yl]-5-hydroxy-5-methyl-5,7-dihydro-6H-pyrrolo[2,3-d]pyrimidin-6-one]

The next lines start with the molecule.

Compound	MEC (minimal effective concentration) [1] [µM]	IC50 (aorta) [nM]
CC1(C)C(=O)Nc2nc(-c3nn(Cc4ccccc4F)c4ncc(F)cc34)ncc21 [Example 2, 2-[5-Fluoro-1-(2-fluorobenzyl)-1H-pyrazolo[3,4-b]pyridin-3-yl]-5,5-dimethyl-5,7-dihydro-6H-pyrrolo[2,3-d]pyrimidin-6-one]	0.01	12
CC1(C)C(=O)Nc2nc(-c3nn(Cc4ccccc4F)c4ncccc34)nc(C(F)F)c21 [Example 7, 4-(Difluoromethyl)-2-[1-(2-fluorobenzyl)-1H-pyrazolo[3,4-b]pyridin-3-yl]-5,5-dimethyl-5,7-dihydro-6H-pyrrolo[2,3-d]pyrimidin-6-one]	0.03	45
O=C1Nc2nc(-c3nn(Cc4ccc(F)cc4F)c4ncccc34)ncc2C12CC2 [Example 8, 2′-[1-(2,4-Difluorobenzyl)-1H-pyrazolo[3,4-b]pyridin-3-yl]spiro[cyclopropane-1,5′-pyrrolo[2,3-d]pyrimidin]-6′(7′H)-one]	0.03	13
O=C1Nc2nc(-c3nn(Cc4cccc(F)c4F)c4ncccc34)ncc2C12CC2 [Example 10, 2′-[1-(2,3-Difluorobenzyl)-1H-pyrazolo[3,4-b]pyridin-3-yl]spiro[cyclopropane-1,5′-pyrrolo[2,3-d]pyrimidin]-6′(7′H)-one]	0.03	6
CC1(C)C(=O)Nc2nc(-c3nn(Cc4cccc(F)c4F)c4ncccc34)ncc21 [Example 11, 2-[1-(2,3-Difluorobenzyl)-1H-pyrazolo[3,4-b]pyridin-3-yl]-5,5-dimethyl-5,7-dihydro-6H-pyrrolo[2,3-d]pyrimidin-6-one]	0.03	4
CC1(C)C(=O)Nc2nc(-c3nn(Cc4ccccc4F)c4ncccc34)nc(C3CC3)c21 [Example 12, 4-Cyclopropyl-2-[1-(2-fluorobenzyl)-1H-pyrazolo[3,4-b]pyridin-3-yl]-5,5-dimethyl-5,7-dihydro-6H-pyrrolo[2,3-d]pyrimidin-6-one]	0.1	–
CC1(C)C(=O)Nc2nc(-c3nn(Cc4ccc(F)cc4F)c4ncccc34)ncc21 [Example 13, 2-[1-(2,4-Difluorobenzyl)-1H-pyrazolo[3,4-b]pyridin-3-yl]-5,5-dimethyl-5,7-dihydro-6H-pyrrolo[2,3-d]pyrimidin-6-one]	0.1	–
CC1(C)C(=O)Nc2nc(-c3nn(Cc4ccc(F)cc4F)c4ncc(F)cc34)nnc21 [Example 21, 3-[1-(2,4-Difluorobenzyl)-5-fluoro-1H-pyrazolo[3,4-b]pyridin-3-yl]-7,7-dimethyl-5,7-dihydro-6H-pyrrolo[2,3-e][1,2,4]triazin-6-one]	0.1	–
O=C1Nc2nc(-c3nn(Cc4ccccc4F)c4ncccc34)ncc2C1(O)c1ccccc1 (stereo not shown) [Example 22, 2-[1-(2-Fluorobenzyl)-1H-pyrazolo[3,4-b]pyridin-3-yl]-5-hydroxy-5-phenyl-5,7-dihydro-6H-pyrrolo[2,3-d]pyrimidin-6-one]	0.03	–
O=C(O)CC1(O)C(=O)Nc2nc(-c3nn(Cc4ccccc4F)c4ncccc34)ncc21 (stereo not shown) [Example 25, {2-[1-(2-Fluorobenzyl)-1H-pyrazolo[3,4-b]pyridin-3-yl]-5-hydroxy-6-oxo-6,7-dihydro-5H-pyrrolo[2,3-d]pyrimidin-5-yl}acetic acid]	1.0	–
CC1(C)C(=O)Nc2nc(-c3nn(Cc4c(F)ccc(F)c4F)c4ncc(F)cc34)nnc21 [Example 29, 3-[5-Fluoro-1-(2,3,6-trifluorobenzyl)-1H-pyrazolo[3,4-b]pyridin-3-yl]-7,7-dimethyl-5,7-dihydro-6H-pyrrolo[2,3-e][1,2,4]triazin-6-one]	0.1	–
COC(=O)C(C)(C)c1nnc(-c2nn(Cc3ccc(F)cc3F)c3ncccc23)nc1O [Example 77A, Methyl 2-{3-[1-(2,4-difluorobenzyl)-1H-pyrazolo[3,4-b]pyridin-3-yl]-5-hydroxy-1,2,4-triazin-6-yl}-2-methylpropanoate]	1.0	–
COC(=O)C(C)(C)c1nnc(-c2nn(Cc3c(F)ccc(F)c3F)c3ncc(F)cc23)nc1O [Example 82A, Methyl 2-{3-[5-fluoro-1-(2,3,6-trifluorobenzyl)-1H-pyrazolo[3,4-b]pyridin-3-yl]-5-hydroxy-1,2,4-triazin-6-yl}-2-methylpropanoate]	0.3	–
